The target in test [1] is 5-hydroxytryptamine receptor 1B (Rattus norvegicus, UniProt P28564).
Test [2] addresses 5-hydroxytryptamine receptor 2A (Rattus norvegicus, UniProt P14842).
For test [3], the target named is T1, 5-hydroxytryptamine receptor 2C (Sus scrofa, UniProt G7ZKZ7).
T1 sequence (G7ZKZ7 whole entry): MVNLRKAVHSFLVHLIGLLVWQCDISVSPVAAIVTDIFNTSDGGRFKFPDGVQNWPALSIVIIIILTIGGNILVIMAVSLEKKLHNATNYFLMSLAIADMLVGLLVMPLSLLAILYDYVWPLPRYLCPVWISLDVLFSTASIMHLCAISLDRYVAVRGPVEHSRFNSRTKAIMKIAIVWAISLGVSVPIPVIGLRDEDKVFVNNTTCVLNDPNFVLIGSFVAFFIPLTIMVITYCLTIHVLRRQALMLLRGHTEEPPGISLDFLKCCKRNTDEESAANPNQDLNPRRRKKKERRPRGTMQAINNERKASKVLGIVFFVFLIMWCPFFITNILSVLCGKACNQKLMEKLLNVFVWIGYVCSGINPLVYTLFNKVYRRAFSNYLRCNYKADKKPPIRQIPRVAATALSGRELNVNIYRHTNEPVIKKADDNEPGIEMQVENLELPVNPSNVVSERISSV

Test [4] has as its target T2, 5-hydroxytryptamine receptor 1A (Rattus norvegicus, UniProt P19327).
T2 sequence (P19327 whole entry): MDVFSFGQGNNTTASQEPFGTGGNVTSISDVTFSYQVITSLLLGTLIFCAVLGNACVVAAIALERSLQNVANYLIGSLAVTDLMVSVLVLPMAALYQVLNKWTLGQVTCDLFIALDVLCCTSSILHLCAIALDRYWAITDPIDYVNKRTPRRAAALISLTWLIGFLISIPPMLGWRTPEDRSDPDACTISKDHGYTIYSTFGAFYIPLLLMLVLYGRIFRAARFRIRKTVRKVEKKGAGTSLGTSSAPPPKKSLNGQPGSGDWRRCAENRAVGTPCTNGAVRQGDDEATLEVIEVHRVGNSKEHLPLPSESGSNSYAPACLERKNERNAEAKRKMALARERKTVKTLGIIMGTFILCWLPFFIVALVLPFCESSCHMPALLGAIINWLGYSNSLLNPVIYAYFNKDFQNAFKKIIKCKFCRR

The target in test [5] is T3, 5-hydroxytryptamine receptor 3A (Rattus norvegicus, UniProt P35563).
T3 sequence (P35563 whole entry): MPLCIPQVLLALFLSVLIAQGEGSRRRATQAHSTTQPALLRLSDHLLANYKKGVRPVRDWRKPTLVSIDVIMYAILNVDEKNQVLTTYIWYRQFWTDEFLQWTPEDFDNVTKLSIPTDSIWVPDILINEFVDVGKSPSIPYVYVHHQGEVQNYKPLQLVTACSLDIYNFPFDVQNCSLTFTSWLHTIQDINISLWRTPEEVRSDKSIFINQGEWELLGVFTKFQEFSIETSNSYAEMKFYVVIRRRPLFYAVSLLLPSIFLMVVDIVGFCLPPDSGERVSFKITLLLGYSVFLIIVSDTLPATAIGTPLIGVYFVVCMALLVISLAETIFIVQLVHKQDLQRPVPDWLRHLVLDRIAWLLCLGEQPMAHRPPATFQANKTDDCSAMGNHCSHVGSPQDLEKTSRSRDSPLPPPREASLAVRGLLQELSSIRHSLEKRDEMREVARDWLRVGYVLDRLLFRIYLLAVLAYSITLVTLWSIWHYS

Our source for the Ki values is BindingDB's records for PubMed 8301575 (Institut De Recherches Servier, 1994).

SMILES strings stand for the structures. pKi: −log10 of the molar value.

5-hydroxytryptamine receptor 1B, sequence (P28564 whole entry): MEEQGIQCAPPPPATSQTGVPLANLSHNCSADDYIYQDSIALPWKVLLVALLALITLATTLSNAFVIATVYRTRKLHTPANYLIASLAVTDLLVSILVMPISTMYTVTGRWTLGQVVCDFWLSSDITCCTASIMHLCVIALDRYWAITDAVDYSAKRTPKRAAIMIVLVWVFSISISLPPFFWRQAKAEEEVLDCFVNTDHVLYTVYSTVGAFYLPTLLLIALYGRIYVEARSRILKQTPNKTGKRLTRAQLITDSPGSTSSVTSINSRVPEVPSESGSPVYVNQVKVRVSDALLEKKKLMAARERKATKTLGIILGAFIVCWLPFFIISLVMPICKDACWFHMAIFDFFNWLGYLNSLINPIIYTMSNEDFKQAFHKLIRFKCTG
5-hydroxytryptamine receptor 2A, sequence (P14842 whole entry): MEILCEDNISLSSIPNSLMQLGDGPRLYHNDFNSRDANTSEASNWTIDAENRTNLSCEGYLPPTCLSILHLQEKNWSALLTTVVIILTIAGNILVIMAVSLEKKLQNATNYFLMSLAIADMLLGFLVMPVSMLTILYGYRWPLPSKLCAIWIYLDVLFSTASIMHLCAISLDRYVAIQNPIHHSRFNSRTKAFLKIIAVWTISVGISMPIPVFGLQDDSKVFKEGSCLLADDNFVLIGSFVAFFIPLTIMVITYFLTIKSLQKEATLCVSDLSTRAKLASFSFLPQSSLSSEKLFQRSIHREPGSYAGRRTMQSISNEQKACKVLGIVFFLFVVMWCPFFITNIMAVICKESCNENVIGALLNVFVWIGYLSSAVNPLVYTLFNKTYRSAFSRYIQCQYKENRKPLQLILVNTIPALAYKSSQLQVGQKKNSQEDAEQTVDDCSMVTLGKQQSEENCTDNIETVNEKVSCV

`COc1ccccc1N1CCN(C[C@@H](C(=O)NC(C)(C)C)c2ccccc2)CC1` [WAY 100135]: the negative logarithm of the Ki (pKi) in test [1] was less than 5.00; in test [2], 5.46; in test [3] it was 5.46; in test [4], 7.49; in test [5], 6.00.
On to `c1ccc2c(c1)CC(N1CCN(c3cccc4c3OCCO4)CC1)C2` [NSC_132787], for which the negative logarithm of the Ki (pKi) was 5.76 in test [1], 6.67 in test [2], 6.27 in test [3] and 6.00 in test [5].
With `CC(C)(C)NCC(O)COc1cccc2c1SCCC2` (single isomer, unassigned; (-)) [TERTATOLOL(-)], the pKi in test [1] was 6.74; in test [2], 5.84; in test [3] it was 6.44; in test [4], 8.08; in test [5] it was 6.00.
With `O=C(CCCN1CCC2(CC1)C(=O)NCN2c1ccccc1)c1ccc(F)cc1` [8-[4-(4-fluorophenyl)-4-oxidanylidene-butyl]-1-phenyl-1,3,8-triazaspiro[4.5]decan-4-one], the negative-log Ki (pKi) in test [1] is less than 5.00; in test [3], 6.01; in test [4], 6.94.
Compound `COC(=O)c1cc2c(N3CCN(CCCCN4C(=O)c5ccccc5S4(=O)=O)CC3)cccc2[nH]1` [CAS_141533-35-9] gave a pKi in test [4] of 8.80.
With `c1cc2c(c(N3CCNCC3)c1)OCCO2` [1-(2,3-Dihydro-benzo[1,4]dioxin-5-yl)-piperazine], the pKi in test [1] is 7.27; in test [2], 5.86; in test [3], 6.77; in test [4], 8.03; in test [5], 6.00.
Regarding `COc1ccccc1N1CCN(CCN2C(=O)CC3(CCCC3)CC2=O)CC1`, the pKi in test [1] is less than 5.00; in test [2] it was 5.76; in test [3] it was 6.63; in test [5], 6.00.
For the compound `C=CCc1ccccc1OC[C@@H](O)CNC(C)C` [ALPRENOLOL,(-)], the pKi in test [1] was 7.00; in test [2], 5.30; in test [3] it was 5.35.
For `COc1ccccc1N1CCN(CCCCN2C(=O)c3ccccc3C2=O)CC1` [2-{4-[4-(2-Methoxy-phenyl)-piperazin-1-yl]-butyl}-isoindole-1,3-dione], the pKi was 5.97 in test [1], 6.19 in test [2] and 6.11 in test [3].
Consider `O=C1CC2(CCCC2)CC(=O)N1CCNCC1COc2ccccc2O1` (configuration not stated) [CAS_124756-23-6], for which the negative-log Ki (pKi) in test [1] is 5.34; in test [2] it was 5.79; in test [3], 6.37; in test [4], 8.90.
On to `c1ccc2c(c1)CCC2CCN1CCN(c2cccc3c2OCCO3)CC1` (configuration not stated) [CAS_182596], for which the negative-log Ki (pKi) in test [1] is 6.38; in test [2], 6.72; in test [3], 6.94; in test [4] it was 8.82; in test [5], 7.27.
As for `c1ccc2c(c1)CC2CCN1CCN(c2cccc3c2OCCO3)CC1` (configuration not stated) [NSC_182595], the pKi in test [1] was 6.22; in test [2] it was 6.85; in test [3] it was 6.82; in test [4], 9.21; in test [5], 6.43.
